In publication PMC6797481, “Identification of an allosteric binding site on the human glycine transporter, GlyT2, for bioactive lipid analgesics” (eLife, 2019):
Substitutions are numbered along the chain they refer to.

Key:
[1] = system: rat model of neuropathic pain; set-up: method as in Mostyn et al., 2019; settings: ref Mostyn et al., 2019; cited from earlier work
GlyT2 R439L mutant = molecular target: T1, GlyT2 R439L mutant (Homo sapiens, UniProt Q9Y345, R439L); assay: Glycine transport currents, two electrode voltage clamp, oocytes expressing GlyT2 R439L; type: cell-based
T1 construct: expressed in transfected cells; host or cells: Xenopus laevis oocytes (cRNA injection)
T1 sequence (Q9Y345 1-797 R439L): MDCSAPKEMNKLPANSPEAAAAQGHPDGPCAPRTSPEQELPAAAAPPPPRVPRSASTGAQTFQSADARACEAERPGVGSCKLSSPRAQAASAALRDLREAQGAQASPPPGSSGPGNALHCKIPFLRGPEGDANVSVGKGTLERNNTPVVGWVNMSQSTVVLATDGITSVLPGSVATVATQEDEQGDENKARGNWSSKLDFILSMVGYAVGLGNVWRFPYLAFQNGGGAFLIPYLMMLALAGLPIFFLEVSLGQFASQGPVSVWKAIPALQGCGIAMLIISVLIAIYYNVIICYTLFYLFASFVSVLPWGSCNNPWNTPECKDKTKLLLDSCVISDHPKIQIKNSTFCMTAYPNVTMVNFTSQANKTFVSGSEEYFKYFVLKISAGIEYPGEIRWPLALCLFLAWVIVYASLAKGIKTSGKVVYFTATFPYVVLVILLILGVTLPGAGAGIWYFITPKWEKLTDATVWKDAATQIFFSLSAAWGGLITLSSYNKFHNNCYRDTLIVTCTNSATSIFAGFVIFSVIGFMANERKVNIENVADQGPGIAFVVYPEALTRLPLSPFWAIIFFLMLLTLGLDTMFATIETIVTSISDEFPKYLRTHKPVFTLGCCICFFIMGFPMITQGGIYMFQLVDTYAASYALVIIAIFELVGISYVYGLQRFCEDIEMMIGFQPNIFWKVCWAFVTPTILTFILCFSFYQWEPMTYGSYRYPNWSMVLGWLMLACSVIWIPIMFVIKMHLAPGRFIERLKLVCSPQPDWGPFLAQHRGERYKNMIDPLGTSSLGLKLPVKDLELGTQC
Method: Glycine was first applied to establish maximal transport current.
Compounds were tested for inhibition of glycine transport on Xenopus laevis oocytes expressing mutant GlyT1 and GlyT2 transporters. n values are in brackets, with measurements taken from at least 2 batches of oocytes.

GlyT1 WT = settings: read-out: Glycine EC50, glycine transport
Method: (§1) Human GlyT1b or GlyT2a (herein referred to as GlyT1 and GlyT2) cDNA were sub-cloned into the plasmid oocyte transcription vector (pOTV). Site-directed mutagenesis was performed using traditional PCR techniques, and sequences confirmed by the Australian Genome Research Facility (Sydney, Australia). WT and mutant plasmid DNA were linearised with SpeI (New England Biolabs (Genesearch) Arundel, Australia) and RNA transcribed by T7 RNA polymerase using the mMessagemMachine kit (Ambion, TX, USA).
(§2) Oocytes were extracted from female Xenopus laevis frogs and detached from follicle cell containing lobes by digestion with 2 mg/mL collagenase A (Boehringer, Mannheim, Germany). Defoliculated stage V-VI oocytes were injected with 4.6 ng of cRNA encoding WT or mutant transporter (Drummond Nanoinject, Drummond Scientific Co., Broomall, PA, USA). Surgical proceedures have been approved by the University of Sydney Animal Ethics Committee (protocol 2016/970). […]
(§3) 2–5 days following injection, glycine transport currents were measured at −60 mV using Geneclamp 500 amplifier (Axon Instruments, Foster City, CA, USA) with a Powerlab 2/20 chart recorder (ADInstruments, Sydney, Australia) and chart software (ADInstruments). All data were subsequently analysed using GraphPad Prism 7.02 (GraphPad Software, San Diego, CA). […]

GlyT2 WT = molecular target: T2, GlyT2 WT (Homo sapiens, UniProt Q9Y345); settings: read-out: Glycine EC50, glycine transport, mean ± SEM
T2 sequence (Q9Y345 1-797): T1 sequence (Q9Y345 1-797 R439L) with L439R
Method: as §1, §2, §3

In the case of oleoyl d-Lysine, the analgesia [1] is listed as “produces analgesia” and the side effects [1] is listed as “minimal side effects”.
For `CCCCCCCC/C=C\CCCCCCCC(=O)N[C@@H](Cc1c[nH]c2ccccc12)C(=O)O` [oleoyl l-Tryptophan], the IC50 (GlyT2 R439L mutant; GlyT2 R439L, mean (95% CI)) was 0.109 µM and the “% Max. inhibition” value (GlyT2 R439L mutant; GlyT2 R439L, mean ± SEM) was 75.3 ± 4.2 (p=0.1040) %.
`NCC(=O)O` [Glycine] showed an EC50 (GlyT2 R439L mutant; glycine transport, GlyT2 R439L (TM5)) of 23 ± 4 µM, an EC50 (GlyT1 WT) of 14.4 ± 1.2 µM and an EC50 (GlyT2 WT) of 14.5 ± 2.6 µM.
